Data taken from patent US5726153A, “Synthetic peptides for arterial imaging” (New England Deaconess Hospital Corporation, priority 1995, dated 1998).
“Also recorded” adds a separate entry of the source. Ends that are not written are not given here.

Legend:
[1] = system: balloon de-endothelialized healing abdominal aorta; assay: Focal accumulation at vascular injury, onlay autoradiography of excised aorta, balloon de-endothelialized rabbit; assay type: in vivo, New Zealand white rabbits
Procedure: The peptides described herein were assayed for their ability to target sites of vascular injury as follows. Male New Zealand white rabbits (2 to 3 kg each) were obtained from ARI Breeding Labs, West Bridgewater, Mass. To induce vascular injury, their abdominal aortas were denuded of endothelium by a modification of the Baumgartner technique (Fischman et al., Arteriosclerosis 7:361, 1987). Briefly, after each animal was anesthetized with ketamine and ether or, alternatively, with xylazine (20 mg/ml) and Ketalar (50 mg/ml), the left femoral artery was isolated; a 4F Fogarty embolectomy catheter (Model 12-040-4F, Edwards Laboratories Incorporated, Santa Anna, Calif.) was introduced through an arterotomy in the femoral artery and was advanced under fluoroscopic visualization to the level of the diaphragm. The catheter was inflated to a pressure of about 3 psi above the balloon inflation pressure with radiographic contrast medium (Conray, Mallinkrodt, St. Louis, Mo.). Three passes were made through the abdominal aorta with the inflated catheter to remove the aortic endothelium before removal of the catheter, ligation of the femoral artery, and closure of the wound. The animals were allowed to heal for a period of 4 to 5 weeks before injection of the labelled synthetic peptides.
(§1) Each labelled synthetic peptide preparation (containing, for example, 150 to 400 or more μCi of ^125 I-labelled peptide) in column elution buffer was injected into the marginal ear vein of the ballooned and healing New Zealand white rabbits or WHHL rabbits. Serial blood samples were obtained from the opposite ear during the ensuing 0-24 hours and were analyzed for radioactivity. The labelled peptide concentrations in the blood samples that were withdrawn over the first 10 minutes after injection were extrapolated to zero time to determine the time zero radioactivity in the calculation of average plasma radioactivity. […] Peptides SP15a, SP17, SP19a, SP21a, SP28, SP34a, and SP30 were cleared rapidly from the plasma with half-lives of about one minute or less; after one hour, the plasma levels were less than 10% of the injected dose and fell by an additional 1% over the next three hours. Peptides SP15a, SP17, SP21a, SP28, SP34a, and SP30 leveled off to a plasma level of 3-6%; peptide SP19a cleared more quickly and leveled off to a concentration of 0.3% (at four hours).
One to twenty-four hours after injection of the labelled synthetic peptide preparations, each animal was injected intravenously with 4 ml of a 0.5% solution of Evans blue dye (Allied Chemical Company, National Aniline Division, NY, N.Y.) which stains areas of de-endothelialized aorta blue. After 30 minutes, the animal was sacrificed by a lethal injection of pentobarbital. After sacrifice, the aorta was removed completely, washed in saline, and fixed in 10% trichloroacetic acid.
The washed and fixed aortas from the animals that had been injected with radiolabelled synthetic peptide were opened along the ventral surface. These segments were then pinned out, fixed for 2 hours in 10% trichloroacetic acid, and photographed. The fixed, opened vessels were then covered with a single layer of plastic (Saran) wrap, placed on high speed x-ray film (Kodak Orthofilm OH-1), and stored for 3 days to 4 weeks in a Kodak "X-Omatic cassette" (24×30 cm) at -70° C. before development in a 90 second X-OMAT.

[2] = Plasma decay of 125I-labelled synthetic peptide after intravenous injection; assay type: in vivo, rabbit; details: for plasma level leveled off to / plasma level after one hour: 125I-labelled peptide, intravenous, rabbit; for additional fall of plasma level over the next three hours: from one to four hours after injection
Procedure: as §1

anti-SP-4 antiserum = assay: ELISA cross-reactivity: peptide-coated plates treated with anti-SP-4 antiserum; assay type: binding, rabbit; details: FIG. 4
Procedure: To produce anti-synthetic peptide antisera, purified synthetic peptide was dissolved in PBS, pH 7.4 at a concentration of 1 mg/ml. The peptide solution was mixed with an equal volume of complete Freund's adjuvant and vortexed thoroughly until a thick emulsion was produced. New Zealand White rabbits (Millbrook Farms, Amherst, Mass.) were injected with a total of 0.5 mg synthetic peptide administered subcutaneously in the four dorsal quadrants. The rabbits were given a boost (injected at the same sites) with 0.5 mg peptide emulsified in incomplete Freund's adjuvant 2-3 weeks later. Eight to ten days after the first boost, the animals were given a second, identical boost and were bled of 30 ml 8 to 10 days later.
To test for immunological cross-reactivity microtiter plates (Immulon II Dynatech Labs, Chantilly, Va.) were coated with the purified synthetic peptide or LDL by an overnight incubation at 4° C. with 100 ng peptide per well in 50 mM carbonate, pH 9.6, and blocked for nonspecific binding with an additional overnight incubation with phosphate-buffered saline, pH 7.4 (PBS), 1% bovine serum albumin (BSA). Control wells were coated with BSA alone. After washing twice with PBS, the wells were filled with serial dilutions (1:10 to 1:100,000 made in PBS, 3% BSA) of a rabbit polyclonal antibody generated against the synthetic peptide(s) and incubated for 45 minutes at room temperature. Following thorough washing (3× with PBS, 0.1% BSA), the wells were filled with a 1:2000 dilution of goat anti-rabbit IgG-horseradish peroxidate conjugate (Atlantic Antibodies, Scarborough, Me.). After a final wash, the wells were filled with 3,3'-5,5'- tetramethybenzidine (TMB) microwell peroxidase substrate (Kirkegaard and Perry Labs, Gaithersburg, Md.) and read at 650 nm every two minutes on an ELISA-5 automated plate reader (Physica, New York, N.Y.). Results (see, e.g., FIGS. 4 and 5) are expressed as the initial velocity of substrate conversion (change in OD650 /hr), which is determined by a linear regression of 15 data points per well. Each data point represents the average of three measured data points from the same plate, run at the same time.

[3] = system: atherosclerotic lesions of the aorta; assay: Focal accumulation at atherosclerotic lesions, onlay autoradiography of excised aorta, WHHL rabbit; assay type: in vivo, Watanabe Heritable Hyperlipemic (WHHL) rabbits; details: FIG. 7
Procedure: Watanabe Heritable Hyperlipemic (WHHL) rabbits were also used as animal models. They were obtained from the WHHL Rabbit Program of the National Heart Lung and Blood Institute (Bethesda, Md.) at about 3 months of age and weighing about 1.5 kg. The animals were raised until they were 3-4 kg in weight.
as §1, with “hours). […]” for “hours).”

## Ac-YVLDEFREKLNEELEALKQK-NH2 [SP-34a]
[1]
  localization of 125I-labelled peptide on onlay autoradiograph of the aorta: accumulated focally at the leading edges of regenerating endothelial tissue
[2]
  plasma level leveled off to: 3-6%
  plasma level after one hour: less than 10 % of the injected dose
  additional fall of plasma level over the next three hours: 1%

## CH3 CONH-Tyr-Arg-Ala-Leu-Val-Asp-Tyr-Leu-Lys-Phe-Val-Thr-Gln-Leu-CONH2 (Ac-YRALVDYLKFVTQL-NH2) [SP-12A, modified counterpart of SP-12]
anti-SP-4 antiserum
  binding of anti-SP-4 antiserum to the peptide: bind

## YVGVAPGVGVAPGVGVAPG [SP-28, H2 N-Tyr-Val-Gly-Val-Ala-Pro-Gly-Val-Gly-Val-Ala-Pro-Gly-Val-Gly-Val-Ala-Pro- Gly-OH]
[1]
  localization of 125I-labelled peptide on onlay autoradiograph of the aorta: accumulated focally at the leading edges of regenerating endothelial tissue
[2]
  plasma level leveled off to: 3-6%
  plasma level after one hour: less than 10 % of the injected dose
  additional fall of plasma level over the next three hours: 1%

## H2 N-Tyr-Lys-Leu-Ala-Leu-Glu-Ala-Ala-Arg-Leu-Leu-Ala-Asn-Ala-Glu-Gly-Ala-Lys- CONH2 (H-YKLALEAARLLANAEGAK-NH2) [SP-8, conservatively substituted SP-4]
anti-SP-4 antiserum
  binding of anti-SP-4 antiserum to the peptide: bind

## H2 N-Tyr-Lys-Leu-Ala-Leu-Glu-Ala-Ala-Arg-Leu-Leu-Ala-Asp-Ala-Glu-Gly-Ala-Lys- CONH2 (H-YKLALEAARLLADAEGAK-NH2) [SP-6, conservatively substituted SP-4]
anti-SP-4 antiserum
  binding of anti-SP-4 antiserum to the peptide: bind

## Ac-YRALVDTEFKVKQEAGAK-NH2 [SP-21a, CH3 CONH-Tyr-Arg-Ala-Leu-Val-Asp-Thr-Glu-Phe-Lys-Val-Lys-Gln-Glu-Ala-Gly-Ala-Lys-CONH2]
[1]
  localization of 125I-labelled peptide on onlay autoradiograph of the aorta: accumulated focally at the leading edges of regenerating endothelial tissue
[2]
  plasma level leveled off to: 3-6%
  plasma level after one hour: less than 10 % of the injected dose
  additional fall of plasma level over the next three hours: 1%

## CH3 CONH-Tyr-Arg-Ala-Leu-Val-Asp-Thr-Leu-Lys-CONH2 (Ac-YRALVDTLK-NH2) [SP-14A, modified counterpart of SP-14]
anti-SP-4 antiserum
  binding of anti-SP-4 antiserum to the peptide: bind

## YAALDLNAVANKIADFEL-NH2 [SP-17, H2 N-Tyr-Ala-Ala-Leu-Asp-Leu-Asn-Ala-Val-Ala-Asn-Lys-Ile-Ala-Asp-Phe-Glu-Leu- CONH2]
[1]
  localization of 125I-labelled peptide on onlay autoradiograph of the aorta: accumulated focally at the leading edges of regenerating endothelial tissue
[2]
  plasma level leveled off to: 3-6%
  plasma level after one hour: less than 10 % of the injected dose
  additional fall of plasma level over the next three hours: 1%

## NH2 -Tyr-Arg-Ala-Leu-Val-Asp-Thr-Leu-Lys-Phe-Val-Thr-Gln-Ala-Glu-Gly-Ala-Lys-CONH2 (H-YRALVDTLKFVTQAEGAK-NH2) [SP-4]
[3]
  localization of 125I-labelled peptide on onlay autoradiograph of the aorta: clearly correspond to the radioactively-labelled lesions; also recorded: localizes at atherosclerotic lesions
[1]
  localization of 125I-labelled peptide on onlay autoradiograph of the aorta: clear-cut localization of the synthetic peptide on the image at the healing (re-endothelizing) edge of the aortic lesions; also recorded: labelled healing lesions
anti-SP-4 antiserum
  binding of anti-SP-4 antiserum to the peptide: bind

## Ac-YRALVDTLKFVTEQAKGA-NH2 [SP-19a, CH3 CONH-Tyr-Arg-Ala-Leu-Val-Asp-Thr-Leu-Lys-Phe-Val-Thr-Glu-Gln-Ala-Lys-Gly-Ala-CONH2]
[1]
  localization of 125I-labelled peptide on onlay autoradiograph of the aorta: accumulated focally at the leading edges of regenerating endothelial tissue
[2]
  plasma level after one hour: less than 10 % of the injected dose
  additional fall of plasma level over the next three hours: 1%
[2]; at four hours
  plasma concentration leveled off to: 0.3%

## CH3 CONH-Tyr-Lys-Leu-Ala-Leu-Glu-Ala-Ala-Arg-Leu-Leu-Ala-Asp-Ala-Glu-Gly-Ala-Lys-CONH2 (Ac-YKLALEAARLLADAEGAK-NH2) [SP-6A, modified counterpart of SP-6]
anti-SP-4 antiserum
  binding of anti-SP-4 antiserum to the peptide: bind

## CH3 CONH-Tyr-Lys-Leu-Ala-Leu-Glu-Ala-Ala-Arg-Leu-Leu-Ala-Asn-Ala-Glu-Gly-Ala-Lys-CONH2 (Ac-YKLALEAARLLANAEGAK-NH2) [SP-8A, modified counterpart of SP-8]
anti-SP-4 antiserum
  binding of anti-SP-4 antiserum to the peptide: bind

## CH3 CONH-Tyr-Arg-Ala-Leu-Val-Asp-Thr-Leu-Lys-Phe-Val-Thr-Gln-Ala-Glu-Gly-Ala-Lys-CONH2 (Ac-YRALVDTLKFVTQAEGAK-NH2) [SP-4A, modified counterpart of SP-4]
anti-SP-4 antiserum
  binding of anti-SP-4 antiserum to the peptide: bind

## YVPGVGVPGVGVPGVGVPGVG-NH2 [SP-30, H2 N-Tyr-Val-Pro-Gly-Val-Gly-Val-Pro-Gly-Val-Gly-Val-Pro-Gly-Val-Gly-Val-pro- Gly-Val-Gly-CONH2]
[1]
  localization of 125I-labelled peptide on onlay autoradiograph of the aorta: accumulated focally at the leading edges of regenerating endothelial tissue
[2]
  plasma level leveled off to: 3-6%
  plasma level after one hour: less than 10 % of the injected dose
  additional fall of plasma level over the next three hours: 1%

## Ac-YAKFRETLEDTRDRMY-NH2 [SP-15a, CH3 CONH-Tyr-Ala-Lys-Phe-Arg-Glu-Thr-Leu-Glu-Asp-Thr-Arg-Asp-Arg-Met-Tyr-CONH2]
[1]
  localization of 125I-labelled peptide on onlay autoradiograph of the aorta: accumulated focally at the leading edges of regenerating endothelial tissue
[2]
  plasma level leveled off to: 3-6%
  plasma level after one hour: less than 10 % of the injected dose
  additional fall of plasma level over the next three hours: 1%
